Source: US10968203B2, “Pyrimidinyl-pyridyloxy-naphthyl compounds and methods of treating IRE1-related diseases and disorders” (Genentech, Inc., priority 2017, dated 2021)
Counter-ions that a name gives are not always drawn.

test system: XBP1s-luc 293 LUC; test: cellular PD assay, XBP1s-LUC reporter (Example 903); format: cell-based; settings: Table 1; read-out: XBP1s-luc 293 LUC (IC50)
Protocol: Inhibition of IRE1α RNase activity was determined in an enzyme assay that measured cleavage of the XBP1 stem loop by autophosphorylated IRE1α. This assay format was chosen to ensure that inhibitors of either the IRE1α kinase or the RNase domains would be identified. Binding to the ATP pocket and inhibition of IRE1α kinase activity are not necessarily required to inhibit the RNase activity. Compounds were also profiled in cellular assays by direct measurement of XBP s (B-DNA assay) or by quantification of the luciferase signal in HT1080 XBP1-Luc, which carries a luciferase fusion that is only in frame and expressed from the spliced XBP1 transcript.
Biological activity of Formula I or I′ compounds was measured by an IRE1 biochemical binding assay (Example 901), a biochemical RNase assay (Example 902), a cellular PD assay, XBP1s-LUC reporter (Example 903), and an IRE1α-based inhibition of multiple myeloma (MM) cell proliferation assay.
All of the exemplary Formula I or I′ compounds in Tables 1 and 2 were made and characterized by LCMS [M+H]^+ (liquid chromatography mass spectroscopy) with detection of parent ion. All of the exemplary Formula I compounds in Tables 1 and 2 were prepared according to the procedures of the Schemes, General Procedures, and Examples. All of the exemplary Formula I or I′ compounds in Tables 1 and 2 were tested for binding to IRE1 (inositol requiring enzyme 1 alpha) and biological activity according to the assays and protocols of Example 901-903. Exemplary Formula I or I′ compounds in Tables 1 and 2 have the following structures, corresponding IUPAC names (ChemBioDraw, Version 12.0.2, CambridgeSoft Corp., Cambridge Mass.), and biological activity. Where more than one name is associated with a Formula I or I′ compound or intermediate in Tables 1 and 2 and the Experimental Procedures, the chemical structure shall define the compound. Assignment of configuration at chiral centers in separated stereoisomers may be tentative, and depicted in Tables 1 and 2 structures for illustrative purposes, before stereochemistry is definitively established, such as from x-ray crystallographic data. In some cases, stereoisomers are separated and tested for biological activity before the stereochemistry of the separated stereoisomers is determined; and stereochemistry in some instances was inferred based on structure-activity relationship (SAR) knowledge from previous compounds. In some cases, the compounds are tested as racemic or diastereomeric mixtures. Where more than one potency value is entered on a row, separated stereoisomers represented by the structure and name on that row were tested. Exemplary compounds of Formula I or I′ in Table 3 can be prepared using methods known in the art or according to procedures similar to those described in the Schemes, General Procedures, and Examples 101-500. Biological activities of compounds in Table 3 can be tested in biological assays, for example, those in Examples 901, 902 and 903 described herein.

Point of comparison: Cc1ccc2c(N3CCCC(C)C3=O)cccc2c1Oc1ncccc1-c1ccnc(N[C@H]2CCCNC2)n1 (mixture of isomers) [Example 354, 3-Methyl-1-(6-methyl-5-((3-(2-((S)-piperidin-3-ylamino)pyrimidin-4-yl)pyridin-2-yl)oxy)naphthalen-1-yl)piperidin-2-one], IC50 318 nM. Against it:
- Cc1ccc2c(NCC(O)C(C)C)cccc2c1Oc1ncccc1-c1ccnc(N[C@H]2CCCNC2)n1 (mixture of isomers) [Example 200, 3-Methyl-1-((6-methyl-5-((3-(2-((S)-piperidin-3-ylamino)pyrimidin-4-yl)pyridin-2-yl)oxy)naphthalen-1-yl)amino)butan-2-ol] — 4.1-fold lower, 77 nM
- Cc1ccc2c(N3C(=O)CCC3C)cccc2c1Oc1ncccc1-c1ccnc(N[C@H]2CCCNC2)n1 (mixture of isomers) [Example 237, 5-Methyl-1-(6-methyl-5-((3-(2-((S)-piperidin-3-ylamino)pyrimidin-4-yl)pyridin-2-yl)oxy)naphthalen-1-yl)pyrrolidin-2-one] — within 1.5-fold, 472 nM
- Cc1ccc2c(N3CCC(C)S3(=O)=O)cccc2c1Oc1ncccc1-c1ccnc(N[C@H]2CCCNC2)n1 (mixture of isomers) [Example 245, 5-Methyl-2-(6-methyl-5-((3-(2-((S)-piperidin-3-ylamino)pyrimidin-4-yl)pyridin-2-yl)oxy)naphthalen-1-yl)isothiazolidine 1,1-dioxide] — within 1.5-fold, 294 nM
- Cc1ccc2c(NC(=O)C3CC34CCCCC4)cccc2c1Oc1ncccc1-c1ccnc(N[C@H]2CCCNC2)n1 (mixture of isomers) [Example 281, N-(6-Methyl-5-((3-(2-(((S)-piperidin-3-yl)amino)pyrimidin-4-yl)pyridin-2-yl)oxy)naphthalen-1-yl)spiro[2.5]octane-1-carboxamide] — 3.6-fold lower, 89 nM
- Cc1ccc2c(NC(=O)C3CC34CCOC4)cccc2c1Oc1ncccc1-c1ccnc(N[C@H]2CCCNC2)n1 (mixture of isomers) [Example 289, N-(6-Methyl-5-((3-(2-(((S)-piperidin-3-yl)amino)pyrimidin-4-yl)pyridin-2-yl)oxy)naphthalen-1-yl)-5-oxaspiro[2.4]heptane-1-carboxamide] — within 1.5-fold, 431 nM
- Cc1ccc2c(NC3CCCC3O)cccc2c1Oc1ncccc1-c1ccnc(N[C@H]2CCCNC2)n1 (mixture of isomers) [Example 383, anti-2-((6-Methyl-5-((3-(2-((S)-piperidin-3-ylamino)pyrimidin-4-yl)pyridin-2-yl)oxy)naphthalen-1-yl)amino)cyclopentanol] — within 1.5-fold, 231 nM
- Cc1ccc2c(NCCC(C)O)cccc2c1Oc1ncccc1-c1ccnc(N[C@H]2CCCNC2)n1 (mixture of isomers) [Example 390, 4-((6-Methyl-5-((3-(2-((S)-piperidin-3-ylamino)pyrimidin-4-yl)pyridin-2-yl)oxy)naphthalen-1-yl)amino)butan-2-ol] — 2.2-fold lower, 143 nM
- CCC(C)S(=O)(=O)Nc1cccc2c(Oc3ncccc3-c3ccnc(N[C@H]4CCCNC4)n3)c(C)ccc12 (mixture of isomers) [Example 134, N-(6-Methyl-5-((3-(2-((S)-piperidin-3-ylamino)pyrimidin-4-yl)pyridin-2-yl)oxy)naphthalen-1-yl) butane-2-sulfonamide] — within 1.5-fold, 260 nM
- Cc1ccc2c(NCC3CC3(F)F)cccc2c1Oc1ncccc1-c1ccnc(N[C@H]2CCCNC2)n1 (mixture of isomers) [Example 341, 4-(2-((5-(((2,2-Difluorocyclopropyl)methyl)amino)-2-methylnaphthalen-1-yl)oxy)pyridin-3-yl)-N—((S)-piperidin-3-yl)pyrimidin-2-amine] — 2.7-fold lower, 118 nM
- Cc1ccc2c(NC(=O)[C@@H]3C[C@@H]3F)cccc2c1Oc1ncccc1-c1ccnc(N[C@H]2CCCNC2)n1 (relative stereo) [Example 212, (1S,2S)-2-Fluoro-N-[6-methyl-5-[[3-[2-[[(3S)-3-piperidyl]amino]pyrimidin-4-yl]-2-pyridyl]oxy]-1-naphthyl]cyclopropanecarboxamide] — 2.6-fold lower, 122 nM
- CCCS(=O)(=O)Nc1cccc2c(Oc3ncccc3-c3ccnc(N[C@@H]4CNCC[C@H]4C)n3)c(C)ccc12 (single isomer, unassigned) [Example 169] — 2.6-fold lower, 121 nM
- Cc1ccc2c(NC(=O)[C@H]3CC3(F)F)cccc2c1Oc1ncccc1-c1ccnc(N[C@H]2CCCNC2)n1 (single isomer, unassigned) [Example 179] — 4.2-fold lower, 76 nM
- Cc1ccc2c(NC(=O)[C@@H]3CC3(F)F)cccc2c1Oc1ncccc1-c1ccnc(N[C@H]2CCCNC2)n1 (single isomer, unassigned) [Example 180] — within 1.5-fold, 213 nM
- CCCS(=O)(=O)Nc1cccc2c(Oc3ncccc3-c3ccnc(N[C@H]4CC[C@H](C)NC4)n3)c(C)ccc12 (single isomer, unassigned) [Example 196] — 2-fold lower, 162 nM
- Cc1ccc2c(NCC[C@@H](C)O)cccc2c1Oc1ncccc1-c1ccnc(N[C@H]2CCCNC2)n1 (single isomer, unassigned) [Example 201] — 2.4-fold lower, 133 nM
- Cc1ccc2c(NCC[C@H](C)O)cccc2c1Oc1ncccc1-c1ccnc(N[C@H]2CCCNC2)n1 (single isomer, unassigned) [Example 202] — 2.6-fold lower, 123 nM
- CO[C@H]1CNC[C@@H](Nc2nccc(-c3cccnc3Oc3c(C)ccc4c(NS(=O)(=O)Cc5ccc(Cl)cc5)cccc34)n2)C1 (single isomer, unassigned) [Example 205] — 2.4-fold lower, 130 nM
- CCCS(=O)(=O)Nc1cccc2c(Oc3ncccc3-c3ccnc(N[C@@H]4CNCC[C@H]4F)n3)c(C)ccc12 (single isomer, unassigned) [Example 206] — 1.5-fold higher, 487 nM
- Cc1ccc2c(NS(=O)(=O)CC(C)C)c(F)ccc2c1Oc1ncccc1-c1ccnc(N[C@@H]2CNC[C@@H](F)C2)n1 (single isomer, unassigned) [Example 208] — 17-fold lower, 18.2 nM
- Cc1ccc2c(NS(=O)(=O)[C@@H](C)c3ccccc3)cccc2c1Oc1ncccc1-c1ccnc(N[C@H]2CCCNC2)n1 (single isomer, unassigned) [Example 214] — 4.2-fold lower, 76 nM
- Cc1ccc2c(NC(=O)[C@H]3CC34CC4)cccc2c1Oc1ncccc1-c1ccnc(N[C@H]2CCCNC2)n1 (single isomer, unassigned) [Example 217] — 5.8-fold lower, 55 nM
- Cc1ccc2c(NC(=O)[C@@H]3CC34CC4)cccc2c1Oc1ncccc1-c1ccnc(N[C@H]2CCCNC2)n1 (single isomer, unassigned) [Example 218] — 1.8-fold lower, 174 nM
- Cc1ccc2c(NC(=O)[C@@H]3C[C@@]3(F)c3ccccc3)cccc2c1Oc1ncccc1-c1ccnc(N[C@H]2CCCNC2)n1 (single isomer, unassigned) [Example 226] — within 1.5-fold, 223 nM
- Cc1ccc2c(NC(=O)C3CC3C(F)(F)F)cccc2c1Oc1ncccc1-c1ccnc(N[C@H]2CCCNC2)n1 (single isomer, unassigned) [Example 227] — 1.6-fold higher, 493 nM
- Cc1ccc2c(NC(=O)C3CC3C(F)(F)F)cccc2c1Oc1ncccc1-c1ccnc(N[C@H]2CCCNC2)n1 (single isomer, unassigned) [Example 228] — 3.6-fold lower, 88 nM
- Cc1ccc2c(NC(=O)C3CC3C(C)C)cccc2c1Oc1ncccc1-c1ccnc(N[C@H]2CCCNC2)n1 (single isomer, unassigned) [Example 229] — within 1.5-fold, 454 nM

same assay, conditions: Table 2; read-out: XBP1s-luc 293 LUC (IC50)

Point of comparison: Cc1ccc2c(NCC(F)CF)cccc2c1Oc1ncccc1-c1ccnc(N[C@H]2CCCNC2)n1 (mixture of isomers) [Example 460, 4-[2-[[5-(2,3-Difluoropropylamino)-2-methyl-1-naphthyl]oxy]-3-pyridyl]-N-[(3S)-3-piperidyl]pyrimidin-2-amine hydrochloride], IC50 92 nM. Against it:
- CCC(C)CS(=O)(=O)Nc1c(F)ccc2c(Oc3ncccc3-c3ccnc(N[C@H]4CCCNC4)n3)c(C)ccc12 (mixture of isomers) [Example 409, N-(2-Fluoro-6-methyl-5-((3-(2-(((S)-piperidin-3-yl)amino)pyrimidin-4-yl)pyridin-2-yl)oxy)naphthalen-1-yl)-2-methylbutane-1-sulfonamide] — 3.7-fold lower, 25 nM
- Cc1ccc2c(NS(=O)(=O)CC3CC3(F)F)c(F)ccc2c1Oc1ncccc1-c1ccnc(N[C@H]2CCCNC2)n1 (mixture of isomers) [Example 467, 1-(2,2-Difluorocyclopropyl)-N-(2-fluoro-6-methyl-5-((3-(2-((S)-piperidin-3-ylamino)pyrimidin-4-yl)pyridin-2-yl)oxy)naphthalen-1-yl)methanesulfonamide hydrochloride] — 2.2-fold lower, 42 nM
